The source of these data is ChEMBL document CHEMBL5241080, “Quinoline anticancer agents active on DNA and DNA-interacting proteins: From classical to emerging therapeutic targets” (Eur J Med Chem, 2021).

pIC50: −log10 of the molar value.

A short description of data set [1]: Antiproliferative activity against human A375P cells. The format is functional, cell-based.
The test system of the next data set is SK-MEL-5. Put plainly: Antiproliferative activity against human SK-MEL-5 cells. The format is functional, cell-based.
For another data set, the system named is SK-MEL-28. Put plainly: Antiproliferative activity against human SK-MEL-28 cells. The format is functional, cell-based.
The next data set relates to MDA-MB-231. The data set is described as follows: Cytotoxicity against human MDA-MB-231 cells at 1 uM by MTT assay. In kind it is functional.
In another data set the test system is SR. Put plainly: Cytotoxicity against human SR cells incubated for 24 hrs by MTT assay. In kind it is functional.
The next data set deals with HL-60. The data set is described as follows: Cytotoxicity against human HL-60 cells incubated for 24 hrs by MTT assay. The format is functional.
In a further data set the test system is MDA-MB-435. The data set is described as follows: Cytotoxicity against human MDA-MB-435 cells incubated for 24 hrs by MTT assay. In kind it is functional.
In data set [2] the target is T1, DNA topoisomerase 1 (Homo sapiens, UniProt P11387).
T1 sequence (P11387 whole entry): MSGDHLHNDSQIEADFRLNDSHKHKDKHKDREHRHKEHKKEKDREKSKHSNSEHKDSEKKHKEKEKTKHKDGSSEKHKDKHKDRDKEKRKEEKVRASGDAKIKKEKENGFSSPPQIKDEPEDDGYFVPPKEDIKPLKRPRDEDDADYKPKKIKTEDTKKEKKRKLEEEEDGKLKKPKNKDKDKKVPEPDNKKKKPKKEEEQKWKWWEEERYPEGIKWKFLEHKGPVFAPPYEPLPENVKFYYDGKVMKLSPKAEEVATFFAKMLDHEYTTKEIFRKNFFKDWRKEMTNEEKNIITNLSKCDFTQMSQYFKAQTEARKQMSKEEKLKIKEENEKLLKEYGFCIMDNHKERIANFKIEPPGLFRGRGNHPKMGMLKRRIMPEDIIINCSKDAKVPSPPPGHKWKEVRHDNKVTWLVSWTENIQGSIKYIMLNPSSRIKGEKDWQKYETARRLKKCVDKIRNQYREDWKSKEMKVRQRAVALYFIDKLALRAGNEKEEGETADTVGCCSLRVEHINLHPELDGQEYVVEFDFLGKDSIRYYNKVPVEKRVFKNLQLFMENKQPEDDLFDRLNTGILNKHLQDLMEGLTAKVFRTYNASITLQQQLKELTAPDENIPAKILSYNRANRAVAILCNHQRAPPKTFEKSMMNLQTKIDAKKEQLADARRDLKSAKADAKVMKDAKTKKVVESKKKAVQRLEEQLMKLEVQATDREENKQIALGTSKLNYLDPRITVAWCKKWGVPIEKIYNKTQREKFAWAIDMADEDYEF
The data set is described as follows: Inhibition of human topoisomerase 1 incubated for 2 hrs by ELISA analysis.

Another data set deals with CAKI-1. Put plainly: Antiproliferative activity against human CAKI-1 cells assessed as inhibition of cell growth incubated for 72 hrs by MTT assay. The format is functional, cell-based. The following applies: CAKI-1, 72 h.
Data set [3] relates to MCF7. Put plainly: Antiproliferative activity against human MCF7 cells assessed as inhibition of cell growth incubated for 72 hrs by MTT assay. In kind it is functional, cell-based. As to conditions: MCF7, 72 h.
In data set [4] the test system is A549. The data set is described as follows: Antiproliferative activity against human A549 cells. The format is functional, cell-based.
Data set [5] concerns the target Protein deacetylase HDAC6 (Homo sapiens, UniProt Q9UBN7). Put plainly: Inhibition of HDAC6 (unknown origin).
In a further data set the test system is PC-3. The data set is described as follows: Antiproliferative activity against human PC-3 cells. The format is functional, cell-based.
Data set [6] concerns HeLa. The data set is described as follows: Antiproliferative activity against human HeLa cells. The format is functional, cell-based.
Data set [7] can be described thus: Antiproliferative activity against human MED-MEB-8A cells. In kind it is functional, cell-based.
For data set [8], the system named is MCF7. The data set is described as follows: Antiproliferative activity against human MCF7 cells. The format is functional, cell-based.
The next data set deals with B16-F10. Put plainly: Antiproliferative activity against mouse B16-F10 cells. The format is functional, cell-based.
For a further data set, the system named is Jurkat E6.1. The data set is described as follows: Antiproliferative activity against human Jurkat E6.1 cells. The format is functional, cell-based.
For a further data set, the target named is Histone deacetylase 8 (Homo sapiens, UniProt Q9BY41). The data set is described as follows: Inhibition of HDAC8 (unknown origin).
The test system of the next data set is MIA PaCa-2. Put plainly: Antiproliferative activity against human MIA PaCa-2 cells. In kind it is functional, cell-based.
The subject of the next data set is U-937. Put plainly: Antiproliferative activity against human U-937 cells assessed as reduction cell viability incubated for 48 hrs by MTT assay. The format is functional, cell-based. As to conditions: U-937, 48 h.
For data set [9], the system named is HeLa. Put plainly: Antiproliferative activity against human HeLa cells incubated for 24 hrs by WST-1 assay. In kind it is functional, cell-based.
The next data set addresses Histone deacetylase. The data set is described as follows: Inhibition of HDAC (unknown origin). In kind it is protein assay, Homo sapiens.
A further data set deals with BT-483. Put plainly: Antiproliferative activity against human BT-483 cells. The format is functional, cell-based.
For data set [10], the target named is T1, DNA topoisomerase 1. The data set is described as follows: Inhibition of topoisomerase 1 (unknown origin).
Data set [11] is described as follows: Inhibition of topoisomerase 2 (unknown origin). Also noted: species or system Homo sapiens.
For data set [12], the system named is HeLa. The data set is described as follows: Antiproliferative activity against human HeLa cells assessed as reduction in cell viability incubated for 48 hrs by MTT assay. The format is functional, cell-based.
Data set [13] deals with A549. Put plainly: Antiproliferative activity against human A549 cells assessed as reduction in cell viability incubated for 48 hrs by MTT assay. As to conditions: A549, 48 h. In kind it is functional, cell-based.
Data set [14] in a line: Oral bioavailability CD-1 mouse at 30 mg/kg. As to conditions: in vivo. The format is ADME, organism-based.
The next data set relates to HT-1080. The data set is described as follows: Antiproliferative activity against human HT-1080 cells. In kind it is functional, cell-based.
The test system of a further data set is U2OS. Put plainly: Antiproliferative activity against human U2OS cells. The format is functional, cell-based.
For the next data set, the system named is WI-38. The data set is described as follows: Antiproliferative activity against human WI-38 cells. In kind it is functional, cell-based.

Chain of Histone deacetylase 8 (Q9BY41 whole entry): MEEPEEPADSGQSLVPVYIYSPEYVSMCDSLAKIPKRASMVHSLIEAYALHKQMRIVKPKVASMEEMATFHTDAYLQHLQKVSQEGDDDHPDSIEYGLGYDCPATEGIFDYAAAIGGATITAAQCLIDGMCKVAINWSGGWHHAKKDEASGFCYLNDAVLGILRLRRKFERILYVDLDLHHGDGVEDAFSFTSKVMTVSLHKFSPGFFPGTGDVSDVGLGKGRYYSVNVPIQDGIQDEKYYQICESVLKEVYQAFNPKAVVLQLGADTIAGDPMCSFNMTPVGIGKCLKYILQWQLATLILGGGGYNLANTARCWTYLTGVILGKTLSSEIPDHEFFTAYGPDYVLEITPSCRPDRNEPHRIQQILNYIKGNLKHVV
Chain of Protein deacetylase HDAC6 (Q9UBN7 whole entry): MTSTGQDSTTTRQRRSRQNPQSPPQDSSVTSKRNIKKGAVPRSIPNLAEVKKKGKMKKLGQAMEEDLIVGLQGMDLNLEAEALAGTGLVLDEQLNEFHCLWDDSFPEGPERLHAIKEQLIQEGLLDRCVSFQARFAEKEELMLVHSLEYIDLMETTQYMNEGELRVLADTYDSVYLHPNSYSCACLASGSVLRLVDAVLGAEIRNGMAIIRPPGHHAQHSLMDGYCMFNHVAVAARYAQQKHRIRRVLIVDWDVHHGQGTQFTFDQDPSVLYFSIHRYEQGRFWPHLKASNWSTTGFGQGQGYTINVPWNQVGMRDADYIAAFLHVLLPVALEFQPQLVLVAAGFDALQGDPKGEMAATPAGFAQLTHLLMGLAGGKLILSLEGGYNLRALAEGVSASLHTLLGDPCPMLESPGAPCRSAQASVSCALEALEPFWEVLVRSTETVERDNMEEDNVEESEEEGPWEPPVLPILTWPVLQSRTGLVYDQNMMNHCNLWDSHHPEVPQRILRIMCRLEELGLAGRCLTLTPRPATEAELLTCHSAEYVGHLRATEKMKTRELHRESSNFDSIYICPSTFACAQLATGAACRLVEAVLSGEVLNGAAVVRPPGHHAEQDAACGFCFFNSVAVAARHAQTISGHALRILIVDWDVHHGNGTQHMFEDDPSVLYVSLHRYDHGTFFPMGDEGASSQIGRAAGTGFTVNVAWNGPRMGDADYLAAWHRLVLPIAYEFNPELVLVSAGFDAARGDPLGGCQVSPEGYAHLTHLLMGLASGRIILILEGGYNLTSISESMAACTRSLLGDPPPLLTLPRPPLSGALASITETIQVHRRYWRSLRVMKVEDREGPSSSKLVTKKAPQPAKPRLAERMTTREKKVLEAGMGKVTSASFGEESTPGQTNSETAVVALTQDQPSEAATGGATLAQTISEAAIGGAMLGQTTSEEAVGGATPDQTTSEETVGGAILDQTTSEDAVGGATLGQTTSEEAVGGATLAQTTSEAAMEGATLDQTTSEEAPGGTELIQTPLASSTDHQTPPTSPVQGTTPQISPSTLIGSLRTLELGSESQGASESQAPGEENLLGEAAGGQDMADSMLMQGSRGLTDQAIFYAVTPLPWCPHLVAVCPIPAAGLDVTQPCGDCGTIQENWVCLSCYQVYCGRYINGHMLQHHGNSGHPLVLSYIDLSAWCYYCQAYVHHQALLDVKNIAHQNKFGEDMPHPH

For `CC[C@@]1(O)C(=O)OCc2c1cc1n(c2=O)Cc2c-1nc1cc(F)c(OC)cc1c2C`, the negative-log IC50 (pIC50) in data set [1] was 8.72; with SK-MEL-5 it was 8.59; with SK-MEL-28, 8.85.

For `O[C@@H]1[C@@H](O)[C@H](Oc2ccc(O[C@@H]3O[C@H](COc4cccc5cccnc45)[C@@H](O)[C@H](O)[C@H]3O)cc2)O[C@H](COc2cccc3cccnc23)[C@H]1O`, in the data set with MDA-MB-231, the Activity is given as 34.9%.

On to `N#CC1=C(N)Oc2c(ccc3ccccc23)C1c1cc2ccccc2n2nnnc12` (centres undefined), for which the concentration for 50% growth inhibition (GI50) stood at 232 nM in the data set with SR, 260 nM in the data set with HL-60 and 300 nM in the data set on MDA-MB-435. For the same compound, the pIC50 against DNA topoisomerase 1 [2] is 6.56.

For `CC1CN(c2nc3ccccc3c3c2-c2ccc(Cl)cc2C3=O)CCN1` (centres undefined), the negative-log IC50 (pIC50) was 5.78 with CAKI-1 and 5.62 in the data set with MCF7 [3].

Consider `O=C(NO)c1ccc(CNc2cccc3cccnc23)cc1`, for which the values for the pIC50 (with A549 [4]; in data set [5]; with PC-3) were 5.27, 8.56 and 5.48, respectively.

Consider `COc1cc(NC(=O)NOCCCCCC(=O)NO)c2nc(OC)cc(C)c2c1`, for which the pIC50 with HeLa [6] is 4.96; with A549 [4], 5.04; in data set [7], 6.23; in the data set on MCF7 [8], 4.94; in the data set with B16-F10, 5.01; in the data set on Jurkat E6.1 it was 5.14. Also, at Histone deacetylase 8, the pIC50 is 8.76.

As for `CCN(CC)CCCNc1ccc2c(c1)[nH]c1c2c[n+](C)c2ccc(NCCCN(CC)CC)cc12`, in the data set on MIA PaCa-2, the negative logarithm of the IC50 (pIC50) is 6.66.

Turning to `O=C(Nc1cccc(Nc2ccnc3ccccc23)c1)c1cccc(Nc2ccnc3ccccc23)c1`, the negative logarithm of the IC50 (pIC50) in the data set with U-937 was 5.82.

`C/C(=C\c1ccc(C(=O)NO)cc1)CNc1cnc2c(Br)cccc2c1` gave a negative logarithm of the IC50 (pIC50) with HeLa [9] of 5.74. Besides, the half-inhibitory concentration (IC50) against Histone deacetylase is recorded as 28 nM.

For the compound `COc1ccc2c(c1)/C(=N\OCCCN(C)C)c1c-2c(N2CCNCC2)nc2ccccc12`, the pIC50 with BT-483 is 5.96.

`CN(C)CCCO/N=C1\c2cc(OCCCN(C)C)ccc2-c2cnc3ccccc3c21`: the pIC50 is 5.58 at DNA topoisomerase 1 [10], 5.31 in [11], 6.41 in the data set on HeLa [12] and 5.95 with A549 [13]. In [14], this compound showed a bioavailability of 39.8%.

With `NCCCOc1cc(NC(=O)c2cc(Cl)cc(C(=O)Nc3cc(OCCCN)c4ccccc4n3)n2)nc2ccccc12`, the pIC50 with HeLa [6], in the data set on HT-1080, in the data set with U2OS and with WI-38 was 6.52 throughout.
